Each structure is given as a SMILES string.

T1 sequence (P08238 whole entry): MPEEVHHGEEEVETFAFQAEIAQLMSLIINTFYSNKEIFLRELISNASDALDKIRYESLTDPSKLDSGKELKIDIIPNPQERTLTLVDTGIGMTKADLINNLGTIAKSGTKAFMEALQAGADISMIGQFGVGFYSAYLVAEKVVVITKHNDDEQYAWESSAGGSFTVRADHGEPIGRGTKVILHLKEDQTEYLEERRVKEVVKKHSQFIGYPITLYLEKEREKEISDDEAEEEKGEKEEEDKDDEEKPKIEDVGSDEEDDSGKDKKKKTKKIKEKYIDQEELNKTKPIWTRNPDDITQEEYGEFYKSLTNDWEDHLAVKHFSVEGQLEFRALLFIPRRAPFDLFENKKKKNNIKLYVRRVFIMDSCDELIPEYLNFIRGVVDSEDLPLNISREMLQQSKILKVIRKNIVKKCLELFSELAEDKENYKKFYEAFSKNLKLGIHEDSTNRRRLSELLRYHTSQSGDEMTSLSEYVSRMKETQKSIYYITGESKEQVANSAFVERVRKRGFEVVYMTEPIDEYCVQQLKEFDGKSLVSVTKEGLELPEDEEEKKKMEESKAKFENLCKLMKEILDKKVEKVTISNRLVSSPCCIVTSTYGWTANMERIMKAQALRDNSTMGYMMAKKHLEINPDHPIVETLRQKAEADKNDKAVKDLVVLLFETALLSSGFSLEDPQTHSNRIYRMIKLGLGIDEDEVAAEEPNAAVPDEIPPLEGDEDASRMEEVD

The assay concerns the target T1, human full-length HSP90 (Homo sapiens, UniProt P08238).
T1 construct: E. coli expressed human full-length HSP90 protein, purified >95%; made in house; host or cells: E. coli
In words: Fluorescence polarization assay (competitive displacement of fluorescein-labelled probe from HSP90). The class given is binding. The conditions noted are these: activity range A or B. The source says: Fluorescence Polarization Assay
Fluorescence polarization {also known as fluorescence anisotropy} measures the rotation of a fluorescing species in solution, where the larger molecule the more polarized the fluorescence emission. When the fluorophore is excited with polarized light, the emitted light is also polarized. The molecular size is proportional to the polarization of the fluorescence emission.
The fluoroscein-labelled probe—
binds to HSP90 {full-length human, full-length yeast or N-terminal domain HSP90} and the anisotropy {rotation of the probe:protein complex} is measured.
Test compound is added to the assay plate, left to equilibrate and the anisotropy measured again. Any change in anisotropy is due to competitive binding of compound to HSP90, thereby releasing probe.
Chemicals are of the highest purity commercially available and all aqueous solutions are made up in AR water. • 1) Costar 96-well black assay plate #3915 • 2) Assay buffer of (a) 100 mM Tris pH7.4; (b) 20 mM KCl; (c) 6 mM MgCl2. Stored at room temperature. • 3) BSA (bovine serum albumen) 10 mg/ml (New England Biolabs # B9001S) • 4) 20 mM probe in 100% DMSO stock concentration. Stored in the dark at RT. Working concentration is 200 nM diluted in AR water and stored at 4° C., Final concentration in assay 80 nM. • 5) E. coli expressed human full-length HSP90 protein, purified >95% (see, e.g., Panaretou et al., 1998) and stored in 50 μL aliquots at −80° C.
• 1) Add 100 μl 1× buffer to wells 11A and 12A (=FP BLNK) • 2) Prepare assay mix—all reagents are kept on ice with a lid on the bucket as the probe is light-sensitive.
• 3) Aliquot 100 μl assay mix to all other wells • 4) Seal plate and leave in dark at room temp for 20 minutes to equilibrate Compound Dilution Plate—1×3 dilution series • 1) In a clear 96-well v-bottom plate—{# VWR 007/008/257} add 10 μl 100% DMSO to wells B1 to H11 • 2) To wells A1 to A11 add 17.5 μl 100% DMSO • 3) Add 2.5 μl cpd to A1. This gives 2.5 mM {50×} stock cpd—assuming cpds 20 mM. • 4) Repeat for wells A2 to A10. Control in columns 11 and 12. • 5) Transfer 5 μl from row A to row B—not column 12. Mix well. • 6) Transfer 5 μl from row B to row C. […] In column 11 {provides standard curve} only add compound B11-H11. Add 2 μl of 100 mM standard cpd to wells B12-H12 {is positive control} • 13) The Z′ factor is calculated from zero controls and positive wells. It typically gives a value of 0.7-0.9.
The compounds tested in the above assay were assigned to one of two activity ranges, namely A=<10 μM; B=>10 μM, and those assignments are reported above.
The molecule `CCNC(=O)c1cc2c(C(=NOCCN3CCCC3=O)c3ccco3)nc(N)nc2s1` [Example 47] registered an IC50 below 10 µM.

For the molecule `CCNC(=O)c1cc2c(C(=NOCCN3CCCC3)c3ccncc3)nc(N)nc2s1` [Example 48], the IC50 is above 10 µM. As for `CCNC(=O)c1cc2c(C(=NO)c3cccs3)nc(N)nc2s1` [Example 50], the figure is below 10 µM; as for `CCNC(=O)c1cc2c(C(=NO)c3ccncc3)nc(N)nc2s1` [Example 51], above 10 µM; as for `CCN(CC)CCON=C(c1ccc2c(c1)OCO2)c1nc(N)nc2sc(C(=O)NCCOC)cc12` [Example 52], below 10 µM. As for `COCCNC(=O)c1cc2c(C(=NOCCN3CCCC3)c3ccc4c(c3)OCO4)nc(N)nc2s1` [Example 53], the figure is below 10 µM.

Regarding `CCN(CC)CCON=C(c1ccc2c(c1)OCO2)c1nc(N)nc2sc(C(=O)NC(C)(C)C)cc12` [Example 55], the half-maximal inhibitory concentration (IC50) is below 10 µM. `CC(C)(C)NC(=O)c1cc2c(C(=NOCCN3CCCC3=O)c3ccc4c(c3)OCO4)nc(N)nc2s1` [Example 58] returned an IC50 below 10 µM. Under `CCN(CC)CCON=C(c1ccc2c(c1)OCO2)c1nc(N)nc2sc(C(=O)NC3CC3)cc12` [Example 59] stands below 10 µM; under `Nc1nc(C(=NOCCN2CCCC2)c2ccc3c(c2)OCO3)c2cc(C(=O)NC3CC3)sc2n1` [Example 60], below 10 µM. As for `Nc1nc(C(=NOCCN2CCCC2=O)c2ccc3c(c2)OCO3)c2cc(C(=O)NC3CC3)sc2n1` [Example 61], the figure is below 10 µM; as for `CCNC(=O)c1cc2c(C(=NOCCN(CC)CC)c3ccc(OC)c(OC)c3)nc(N)nc2s1` [Example 62], below 10 µM; as for `CN(C)CCNC(=O)c1cc2c(C(=NOCCN3CCCC3)c3ccc4c(c3)OCO4)nc(N)nc2s1` [Example 63], above 10 µM. As for `CN(C)CCNC(=O)c1cc2c(C(=NOCCN3CCCC3=O)c3ccc4c(c3)OCO4)nc(N)nc2s1` [Example 64], the figure is above 10 µM; as for `CCN(CC)CCON=C(c1ccc2c(c1)OCO2)c1nc(N)nc2sc(C(=O)NCCN(C)C)cc12` [Example 65], above 10 µM; as for `CCNC(=O)c1cc2c(C(=NOCCN3CCCC3=O)c3ccc(-n4cccn4)cc3)nc(N)nc2s1` [Example 67], below 10 µM. Take `CCNC(=O)c1cc2c(C(=NOCCN3CCCC3)c3ccc(-n4cccc4)cc3)nc(N)nc2s1` [Example 68]: the IC50 is above 10 µM. Consider `CCNC(=O)c1cc2c(C(=NOCCN3CCCC3)c3ccc(-n4cccn4)cc3)nc(N)nc2s1` [Example 69], for which the IC50 is above 10 µM. In the case of `CCNC(=O)c1cc2c(C(=NOCCN(CC)CC)c3ccc(-n4cccc4)cc3)nc(N)nc2s1` [Example 70], the IC50 was above 10 µM. In turn, `CCNC(=O)c1cc2c(C(=NOCCN3CCCC3=O)c3ccc(-n4cccc4)cc3)nc(N)nc2s1` [Example 71] showed an IC50 above 10 µM. As for `CCNC(=O)c1cc2c(C(=NOCCN3CCCC3)c3ccc(N4CCCC4=O)cc3)nc(N)nc2s1` [Example 72], the figure is below 10 µM; as for `CCNC(=O)c1cc2c(C(=NOCCN(CC)CC)c3ccc(N4CCCC4=O)cc3)nc(N)nc2s1` [Example 73], above 10 µM. As for `CCN(CC)CCON=C(c1ccc2c(c1)OCO2)c1nc(N)nc2sc(C(=O)NCC(F)(F)F)cc12` [Example 74], the figure is below 10 µM. As for `Nc1nc(C(=NOCCN2CCCC2)c2ccc3c(c2)OCO3)c2cc(C(=O)NCC(F)(F)F)sc2n1` [Example 75], the figure is below 10 µM; as for `Nc1nc(C(=NOCCN2CCCC2=O)c2ccc3c(c2)OCO3)c2cc(C(=O)NCC(F)(F)F)sc2n1` [Example 76], below 10 µM. `CCNC(=O)c1cc2c(C(=NOCCN3CCCC3=O)c3ccc(N4CCCC4=O)cc3)nc(N)nc2s1` [Example 77] returned an IC50 below 10 µM. Under `CCNC(=O)c1cc2c(C(=NO)c3ccc(N4CCCC4=O)cc3)nc(N)nc2s1` [Example 78] stands below 10 µM; under `CCNC(=O)c1cc2c(C(=NO)c3ccc(-n4cccc4)cc3)nc(N)nc2s1` [Example 80], below 10 µM; under `CCNC(=O)c1cc2c(C(=NO)c3ccc(-n4cccn4)cc3)nc(N)nc2s1` [Example 81], below 10 µM.

Source of the values: patent US20090054421A1, “Pyrimidothiophene Compounds Having HSP90 Inhibitory Activity” (Vernalis R & D Limited, priority 2005, published 2009).
